According to PubChem BioAssay (NCI):
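Test compounds were applied to cells in 96-well plates for 48 hours at 5 doses. GI50: concentration for 50% inhibition of growth. TGI: concentration producing complete growth inhibition.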

Columns and labels:
Assay in all cases: NCI tumour cell line growth inhibition, 48 h
[1] = tested on: 786-0 renal
[2] = tested on: IGROV1 ovarian
[3] = tested on: M14 melanoma
[4] = tested on: NCI-H522 lung
[5] = tested on: SNB-19 CNS
[6] = tested on: SNB-75 CNS
[7] = tested on: SW-620 colon
[8] = tested on: UACC-257 melanoma
[9] = tested on: HCC-2998 colon
[10] = tested on: EKVX NSCLC

SMILES	GI50 [1] [µM]	TGI [1] [µM]	GI50 [2] [µM]	TGI [2] [µM]	GI50 [3] [µM]	TGI [3] [µM]	GI50 [4] [µM]	TGI [4] [µM]	GI50 [5] [µM]	TGI [5] [µM]	GI50 [6] [µM]	TGI [6] [µM]	GI50 [7] [µM]	TGI [7] [µM]	GI50 [8] [µM]	TGI [8] [µM]	GI50 [9] [µM]	TGI [9] [µM]	TGI [10] [µM]	GI50 [10] [µM]
CN(C)c1ccc2c(c1)CN1C(=O)c3ccccc3C1=N2	> 100	> 100	> 100	> 100	> 100	> 100	36.6	> 100	> 100	> 100	> 100	> 100	> 100	> 100	> 100	> 100				
CC(=O)[CH-]C(=O)c1ccccc1.CC(=O)[CH-]C(=O)c1ccccc1.COc1cccc([O-])c1[O-].[Ti+4]	49	> 100	> 100	> 100	64.9	> 100	17.2	31.7	64.3	> 100	43.5	> 100	52.6	> 100	> 100	> 100	90.2	> 100		
CNC(=S)N/N=C1\CC(c2ccccc2)Oc2ccccc21 (stereo unspecified)		> 100		> 100		> 100		> 100		> 100		> 100		> 100				> 100	> 100	
CCCCN(CCCC)c1ccc(C(=N)c2ccc(N(C)C)cc2)cc1	1.1	2.55	0.906	2.44	0.908	2.25			0.951	2.37	1.14	2.42	0.438	1.78	0.562	1.35	0.429	1.62	1.45	0.334
[N-]=[N+]=Nc1ccc(CCN2CCN(c3cccc(C(F)(F)F)c3)CC2)cc1I		> 100				> 100		> 100		> 100		> 100		> 100		> 100			> 100	
O=[N+]([O-])c1cc([N+](=O)[O-])c(Cl)c(Cl)c1Cl	0.804	2.09	1.23	7.25			0.23	0.605	3.36	12	1.54	2.95	0.535	1.94	1.43	2.83	2.84	8.32	10.5	2.74
CN1CCN(CCCOc2cccc3nc(Nc4ccc(Cl)c(F)c4)ccc23)CC1	1.67	3.22	1.95	4.31	1.73	3.37	1.75	3.33	1.86	3.53			1.97	3.71	2.04	3.64	1.52	3.07	3.86	1.89
COc1ccc(CN2C(=O)C(Cc3cc(OC)c(OC)c(C)c3OC)NC(=O)/C2=C/c2cc(OC)c(OC)c(C)c2OC)cc1 (stereo unspecified)		> 100		> 100		96.9		50				> 100		> 100		> 100		90.9	> 100	
CC1=CC[C@@H]2C(C)(C)C(=O)CC[C@@]2(C)[C@@H]1COc1ccc2ccc(=O)oc2c1	46.8	> 100	16.2	55.1	12.9	32.7	8.97	50.9	32.9	> 100			24.9	> 100	12.3	31	30.3	> 100	> 100	13.6
C[C@@H](C1CCC2C3C(=CC(=O)[C@@]21C)[C@H](C)[C@]1(CCC(=O)O1)C1OC31)[C@H]1C[C@]2(C)O[C@@](C)(O1)OC2(C)C (stereo partly specified)		> 100		> 100		> 100		> 100		> 100				> 100					> 100	
O=C(COc1ccc(/C=C2\Oc3ccccc3C2=O)cc1)Nc1nccs1	54.9	> 100							> 100	> 100	17.4	72.6	> 100	> 100	39.3	> 100	> 100	> 100	> 100	51.5
CC(C)(C)N/N=C(\Cc1occc(=O)c1O)C(=O)Nc1ccc([N+](=O)[O-])cc1[N+](=O)[O-]		> 100		> 100		> 100		> 100		> 100		> 100		> 100		> 100			> 100	
Cc1onc(-c2c(F)cccc2Cl)c1-c1ncc(-c2ccc(Cl)cc2)o1	5.14	> 100	6.44	> 100	5.67	> 100	3.79	> 100	6.59	> 100	12.1	77.6	4.35	> 100	3.25	> 100	5.95	> 100		
O=C(Cn1c(=O)c(-c2ccccc2)nc2ccccc21)c1ccc(Cl)cc1	27	86.6	63.3	> 100	> 100	> 100	> 100	> 100	42.2	> 100			> 100	> 100	> 100	> 100	99.5	> 100	> 100	94.2
Cc1cc(Cc2cc(C)c(O)c(C)c2)cc(C)c1O	10.4	40.4	11.3	> 100	3	13.2	3.49	15.4	7.81	> 100	2.59	25.9	3.03	> 100	6.94	62.2	16.3	82.1		
